Source: PubChem BioAssay (NCI)
Several values for one entry are separate records, joined by “and”; a condition that tells them apart may be missing. Equal values may be shown once.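 96-well plates; 48 h exposure; 5 concentrations. Endpoints by linear interpolation between flanking doses. Not reached: highest tested concentration assigned. At the GI50, growth is halved. TGI is the concentration that stops growth completely.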

Key:
Experiment in all cases: NCI anticancer screen, dose series, 48 h
[1] = test system: HOP-92 NSCLC
[2] = test system: KM12 colon
[3] = test system: MALME-3M melanoma
[4] = test system: NCI-H23 lung
[5] = test system: OVCAR-8 ovarian
[6] = test system: RXF 393 renal
[7] = test system: SK-MEL-5 melanoma
[8] = test system: SK-OV-3 ovarian
[9] = test system: SNB-19 CNS
[10] = test system: SW-620 colon

SMILES | GI50 [1] | TGI [1] | GI50 [2] | TGI [2] | GI50 [3] | TGI [3] | GI50 [4] | TGI [4] | GI50 [5] | TGI [5] | GI50 [6] | TGI [6] | GI50 [7] | TGI [7] | GI50 [8] | TGI [8] | GI50 [9] | TGI [9] | GI50 [10] | TGI [10]
CCN(CC)CCCC(CNc1ccnc2cc(Cl)ccc12)c1ccc(Cl)cc1 (centres undefined) | 1.44 µM and 1.16 µM | 3.12 µM and 2.78 µM | 1.77 µM and 1.54 µM | 3.52 µM and 4.33 µM | 1.41 µM and 1.25 µM | 3.02 µM and 2.72 µM | 1.87 µM and 2.01 µM | 4.42 µM and 5.93 µM | 2.61 µM and 1.57 µM | 7.61 µM and 3.99 µM | 1.4 µM and 1.03 µM | 3.01 µM and 2.51 µM | 1.13 µM | 2.4 µM | 2 µM and 1.82 µM | 4.04 µM and 3.81 µM | 1.9 µM and 2.73 µM | 4.17 µM and 6.9 µM | 1.43 µM and 1.55 µM | 3.02 µM and 3.35 µM
CC(O)CCC(=O)c1ccoc1 (centres undefined) |  | 8000 µM |  | > 8110 µM |  | > 8380 µM |  | > 10000 µM |  | > 10000 µM |  | > 8310 µM |  | 8030 µM |  | > 7940 µM |  | > 10000 µM |  | > 10000 µM
COc1ccc(C(=O)C(c2ccc(OC)cc2)C2(O)C(=O)Nc3ccc([N+](=O)[O-])cc32)cc1 (centres undefined) |  | > 100 µM |  | > 100 µM |  | > 100 µM |  | > 100 µM |  | > 100 µM |  | > 100 µM |  |  |  | > 100 µM |  | > 100 µM |  | > 100 µM
O=c1[nH]c(=O)n(C2OC(CO)C(O)C2O)cc1NN=NCc1ccccc1 (centres undefined) |  | > 100 µM |  | > 100 µM |  | > 100 µM |  | > 100 µM |  | > 100 µM |  | > 100 µM |  | > 100 µM |  | > 100 µM |  | > 100 µM |  | > 67.8 µM
Cn1nc(N)c2cc([C@@H]3Nc4ccc5[nH]ncc5c4[C@H]4C5CCC(C5)[C@@H]34)ccc21 (some centres undefined) | 1.51 µM | 17.9 µM | 0.486 µM | 15.2 µM | 0.442 µM | 32.7 µM | 0.643 µM | 17.4 µM | 0.979 µM | > 88.2 µM | 0.227 µM | 0.825 µM | 0.363 µM | 12.7 µM | 1.16 µM | 69.1 µM | 2.34 µM | 34.8 µM | 0.391 µM | 28 µM
Clc1nc2ccccc2nc1CI | 1.81 µM | 6.82 µM | 18.2 µM | 46.5 µM | 2.2 µM | 4.52 µM | 6.38 µM | 25.3 µM | 3.42 µM | 12.4 µM | 3.08 µM | 11.7 µM | 2.6 µM | 7.82 µM | 14.3 µM | 30.4 µM | 16.2 µM | 37.4 µM | 2.57 µM | 6.87 µM
CC(=O)c1cccc(NC(=O)C(=O)NNc2n[nH]c(=S)n2N)c1 |  | 28.7 µM |  | 30.9 µM |  | 5.18 µM |  | 11.4 µM |  | 24.1 µM |  | 24.1 µM |  | 2.6 µM |  | 43.1 µM |  | 21.2 µM |  | 22.5 µM
CNC(=O)N(C)N=NCCCl |  | > 100 µM |  | > 100 µM |  | > 100 µM |  | > 100 µM |  | > 100 µM |  | > 100 µM |  | > 100 µM |  | > 100 µM |  | > 100 µM |  | > 100 µM
COC(=O)c1cc2c(s1)C(=O)c1ccccc1-2 |  | > 100 µM |  | > 100 µM |  | > 100 µM |  | > 100 µM |  | > 100 µM |  | > 100 µM |  | > 100 µM |  | > 100 µM |  | > 100 µM |  | > 100 µM
CCN1CCN(C(c2ccc(C(F)(F)F)cc2)c2ccc3cccnc3c2O)CC1 (centres undefined) | 3.62 µM | 25.3 µM | 0.89 µM | 16.8 µM | 3.72 µM | 15.4 µM | 2.35 µM | 14.9 µM | 1.85 µM | 13.5 µM | 3.2 µM | 16 µM | 2.35 µM | 7.83 µM | 3.84 µM | 16.8 µM | 1.51 µM | 19.8 µM | 4.42 µM | 19.9 µM
O=c1[nH]c2c(nc1NC13CC4CC(CC(C4)C1)C3)c(=O)oc1ccccc12 |  | > 100 µM |  | > 100 µM |  | > 100 µM |  | > 100 µM |  | > 100 µM |  | > 100 µM |  | > 100 µM |  | > 100 µM |  | > 100 µM |  | > 100 µM
O=C(CNc1ccc(Cl)cc1)Nc1ccc(-c2nc3ccccc3s2)cc1 | 1.91 µM | 5.17 µM | 5.39 µM | 16.5 µM | 6.06 µM | 12.6 µM | 2.9 µM | 8.8 µM | 6.15 µM | 17.8 µM | 4.95 µM | 10.3 µM | 2 µM | 5.42 µM | 12 µM | > 78.6 µM | 6.03 µM | 16.6 µM | 2.15 µM | 4.73 µM
COc1ccc(C(C)=O)cc1N1C(=O)C2C(C1=O)C1(c3ccccc3)C(=O)C2(c2ccccc2)C(c2ccc(C)cc2)=C1c1ccc(C)cc1 (centres undefined) | 21.7 µM | > 100 µM | > 100 µM | > 100 µM | > 100 µM | > 100 µM | > 100 µM | > 100 µM | > 100 µM | > 100 µM | > 100 µM | > 100 µM | > 100 µM | > 100 µM | > 100 µM | > 100 µM | > 100 µM | > 100 µM | > 100 µM | > 100 µM
CCN(CC)CCC(CNc1ccnc2cc(Cl)ccc12)c1ccc(OC)cc1 (centres undefined) | 2.42 µM and 2.12 µM | 14.3 µM and 11.5 µM | 12.8 µM and 5.62 µM | 28.6 µM and 21.5 µM | 1.95 µM and 1.86 µM | 3.76 µM and 3.64 µM | 9.4 µM and 10 µM | 26.9 µM and 28.6 µM | 5.76 µM and 4.78 µM | 27.2 µM and 19.3 µM | 3.5 µM and 2.26 µM | 15.6 µM and 5.16 µM | 1.64 µM | 3.09 µM | 13.1 µM and 14.1 µM | 33.4 µM and 46 µM | 10.3 µM and 11 µM | 29 µM and 29.9 µM | 8.16 µM and 4.1 µM | 22.6 µM and 21.7 µM
C=C1C(=O)OC2CCN3CC=C(COC(=O)C(C)(O)C4(CO4)C1C)C23 (centres undefined) |  | > 100 µM |  | > 100 µM |  | > 100 µM |  | > 100 µM |  | > 100 µM |  | > 100 µM |  | > 100 µM |  | > 100 µM |  | > 100 µM |  | > 100 µM
COc1cc(N(CCC#N)CCC#N)ccc1/C(N=Nc1ccc([N+](=O)[O-])cc1)=N/NC(=O)c1cc(Br)ccc1O | 79.6 µg/mL | > 150 µg/mL | 28.5 µg/mL | 71 µg/mL | 44.2 µg/mL | 96.1 µg/mL | 51.2 µg/mL | > 150 µg/mL | 52.8 µg/mL | > 150 µg/mL | 30.3 µg/mL | 83.8 µg/mL | 26.3 µg/mL | 46.9 µg/mL | 37.3 µg/mL | > 150 µg/mL | 58.5 µg/mL | > 150 µg/mL | 57.4 µg/mL | > 150 µg/mL
